# Data: PMC4901301 (Scientific Reports, 2016)
# Where two headings read alike, the source gives them in different places.
# Columns and labels:
# Mtb H37Rv [1] = assay: Broth microdilution susceptibility of Mtb H37Rv; format: cell-based, Mycobacterium tuberculosis; details: replicating Mtb H37Rv, read-out: MIC90 (µM) against H37Rv
# Mtb gyrase = Mtb gyrase (Mycobacterium tuberculosis, UniProt P9WG45); assay: Mtb gyrase supercoiling assay; format: biochemical
# Experimental: Mtb gyrase supercoiling assays were carried out as described previously.
# Mtb H37Rv [2] = assay: Resazurin (Alamar Blue) drug susceptibility testing, H37Rv; format: cell-based, Mycobacterium tuberculosis
# Mtb ThyX = Mtb ThyX (Mycobacterium tuberculosis, UniProt P9WG57); assay: Mtb ThyX tritium release assay; format: biochemical; details: for % of ThyX inhibition at 100 µM: actual measured data; for Ki: read-out: Ki against Mtb ThyX
# Mtb TH 12526 = assay: Resazurin (Alamar Blue) drug susceptibility testing, TH 12526; format: cell-based, Mycobacterium tuberculosis
# Mtb = test system: Mtb; set-up: method as in earlier work; details: cited from earlier work
# [3] = menadione analogs, 7H9 media with 1% ethanol as a co-solvent, read-out: MIC (H37Rv)
# Mtb gyrase, sequence (P9WG47 whole entry): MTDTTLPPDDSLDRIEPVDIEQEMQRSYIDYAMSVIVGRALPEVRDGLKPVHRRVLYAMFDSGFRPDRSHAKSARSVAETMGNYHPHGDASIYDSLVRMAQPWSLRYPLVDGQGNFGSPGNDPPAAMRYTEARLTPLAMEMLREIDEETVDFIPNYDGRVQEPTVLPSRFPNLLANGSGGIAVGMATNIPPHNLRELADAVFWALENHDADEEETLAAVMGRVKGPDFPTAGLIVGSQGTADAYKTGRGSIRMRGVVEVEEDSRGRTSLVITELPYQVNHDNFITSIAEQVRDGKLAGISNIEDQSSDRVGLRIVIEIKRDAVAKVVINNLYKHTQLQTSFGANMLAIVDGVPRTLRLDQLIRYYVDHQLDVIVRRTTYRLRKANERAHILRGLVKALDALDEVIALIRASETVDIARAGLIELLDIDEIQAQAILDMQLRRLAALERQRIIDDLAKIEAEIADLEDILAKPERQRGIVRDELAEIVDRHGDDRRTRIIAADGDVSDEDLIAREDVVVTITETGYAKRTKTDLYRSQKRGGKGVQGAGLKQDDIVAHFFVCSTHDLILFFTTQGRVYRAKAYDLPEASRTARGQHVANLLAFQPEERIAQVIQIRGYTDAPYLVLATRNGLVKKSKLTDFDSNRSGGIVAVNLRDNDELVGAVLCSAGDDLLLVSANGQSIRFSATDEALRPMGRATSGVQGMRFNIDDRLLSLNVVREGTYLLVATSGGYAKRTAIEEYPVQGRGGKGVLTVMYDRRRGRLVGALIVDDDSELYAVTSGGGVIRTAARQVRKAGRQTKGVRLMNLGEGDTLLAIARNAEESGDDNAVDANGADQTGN
# Mtb gyrase, sequence (P9WG45 whole entry): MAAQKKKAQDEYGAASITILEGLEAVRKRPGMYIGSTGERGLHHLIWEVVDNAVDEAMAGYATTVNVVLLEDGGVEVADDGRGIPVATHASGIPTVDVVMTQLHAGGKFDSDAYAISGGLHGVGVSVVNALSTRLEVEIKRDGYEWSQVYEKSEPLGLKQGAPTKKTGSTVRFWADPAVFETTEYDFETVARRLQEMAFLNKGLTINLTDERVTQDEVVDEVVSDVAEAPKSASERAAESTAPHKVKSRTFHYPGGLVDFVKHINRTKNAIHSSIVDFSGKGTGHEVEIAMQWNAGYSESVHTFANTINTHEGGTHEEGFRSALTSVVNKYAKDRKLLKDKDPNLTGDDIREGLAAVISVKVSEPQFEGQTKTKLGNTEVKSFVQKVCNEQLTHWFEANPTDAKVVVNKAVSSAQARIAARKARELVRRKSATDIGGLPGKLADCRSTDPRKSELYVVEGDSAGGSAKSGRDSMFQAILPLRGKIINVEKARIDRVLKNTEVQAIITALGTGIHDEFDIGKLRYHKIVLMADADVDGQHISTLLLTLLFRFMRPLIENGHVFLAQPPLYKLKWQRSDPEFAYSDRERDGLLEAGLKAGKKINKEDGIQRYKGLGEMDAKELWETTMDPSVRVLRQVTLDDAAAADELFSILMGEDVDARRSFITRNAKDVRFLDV
# Mtb ThyX, sequence (P9WG57 whole entry): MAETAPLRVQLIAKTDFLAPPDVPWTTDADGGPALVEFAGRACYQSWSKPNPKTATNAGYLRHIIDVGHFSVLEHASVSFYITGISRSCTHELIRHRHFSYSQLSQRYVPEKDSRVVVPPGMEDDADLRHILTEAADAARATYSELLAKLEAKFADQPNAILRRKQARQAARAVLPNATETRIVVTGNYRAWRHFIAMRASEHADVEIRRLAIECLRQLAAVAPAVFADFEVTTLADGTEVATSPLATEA
compound,measurement,setting,value
CCS(=O)(=O)N1CCN(C2=C(Cl)C(=O)c3ccccc3C2=O)CC1 [Compound F2],MIC90,Mtb H37Rv [1],31.2 µM
CCOCCOC(=O)COc1ccc2c(-c3ccccc3)cc(=O)oc2c1 [2-ethoxyethyl [(2-oxo-4-phenyl-2H-chromen-7-yl)oxy]acetate],Activity against gyrase at 100 uM,Mtb gyrase,no activity
CCCCC1=C(O)C(=O)c2ccccc2C1=O [Compound 010I],MIC,Mtb H37Rv [2]; read-out: MIC,135.7 µM
same,% of ThyX inhibition at 100 µM,Mtb ThyX,58%
same,MIC,"Mtb TH 12526; TH 12526, read-out: MIC",67.8 µM
CCCCc1cc(=O)oc2cc(OCC(=O)OCc3ccccc3)c(Cl)cc12 [benzyl [(4-butyl-6-chloro-2-oxo-2H-chromen-7-yl)oxy]acetate],Activity against gyrase at 100 uM,Mtb gyrase,no activity
O=C1C(O)=C(Cc2ccc(-c3ccc(Cl)cc3)cc2)C(=O)c2ccccc21 [Compound 007B],MIC,"Mtb H37Rv [2]; H37Rv, read-out: MIC",20.8 µM
same,% of ThyX inhibition at 100 µM,Mtb ThyX,21%
same,MIC,"Mtb TH 12526; TH 12526, read-out: MIC",41.7 µM
O=C1C(O)=C(Cc2ccco2)C(=O)c2ccccc21 [Compound 010C],MIC,Mtb H37Rv [2]; read-out: MIC,176.5 µM
same,% of ThyX inhibition at 100 µM,Mtb ThyX,60%
same,MIC,"Mtb TH 12526; TH 12526, read-out: MIC",176.5 µM
COC(=O)COc1cc2oc(=O)cc(-c3ccccc3)c2cc1Cl [methyl [(6-chloro-2-oxo-4-phenyl-2H-chromen-7-yl)oxy]acetate],Activity against gyrase at 100 uM,Mtb gyrase,no activity
COc1ccc(CC2=CC(=O)c3ccccc3C2=O)cc1 [Compound D5],MIC90,Mtb H37Rv [1],62.5 µM
CC(C)Oc1ccc(CC2=C(O)C(=O)c3ccccc3C2=O)cc1 [Compound 007D],MIC,Mtb H37Rv [2]; read-out: MIC,96.9 µM
same,% of ThyX inhibition at 100 µM,Mtb ThyX,71%
same,MIC,"Mtb TH 12526; TH 12526, read-out: MIC",96.9 µM
"NNC(=O)c1ccncc1 [INH, isoniazid, reference compound]",MIC,"Mtb H37Rv [2]; Mycobacterium tuberculosis, H37RV, read-out: MIC",< 0.91 µM
same,MIC,Mtb,0.25 µg/mL
same,MIC,"Mtb TH 12526; Mycobacterium tuberculosis, TH12526, TH 12526, read-out: MIC",< 0.91 µM
O=C1C(O)=C(Cc2ccc(OC(F)(F)F)cc2)C(=O)c2ccccc21 [Compound 007C],MIC,"Mtb H37Rv [2]; H37Rv, read-out: MIC",89.7 µM
same,% of ThyX inhibition at 100 µM,Mtb ThyX,78%
same,MIC,"Mtb TH 12526; TH 12526, read-out: MIC",44.9 µM
"CCOC(=O)C1=C(c2ccc(C)cc2)C(=O)c2ccccc2C1=O [Compound B6, ethyl 3-(4-methylphenyl)-1,4-dioxonaphtalene-2-carboxylate]",Ki,Mtb ThyX; from dose response curves versus ThyX,4.5 µM
same,MIC90,Mtb H37Rv [1]; Mycobacterium tuberculosis,62.5 µM
O=C1C(Cl)=C(N2CCN(C(=O)c3ccc(F)cc3)CC2)C(=O)c2ccccc21 [Compound F1],MIC90,Mtb H37Rv [1],31.2 µM
COc1ccc(CC2=C(O)C(=O)c3ccccc3C2=O)cc1OC [Compound 010K],MIC,Mtb H37Rv [2]; read-out: MIC,192.7 µM
same,% of ThyX inhibition at 100 µM,Mtb ThyX,42%
same,MIC,"Mtb TH 12526; TH 12526, read-out: MIC",48.2 µM
O=C1C(O)=C(Cc2ccc(Cl)cc2)C(=O)c2ccccc21 [Compound 010A],MIC,Mtb H37Rv [2]; read-out: MIC,52.3 µM
same,% of ThyX inhibition at 100 µM,Mtb ThyX,64%
same,MIC,"Mtb TH 12526; TH 12526, read-out: MIC",52.3 µM
O=C1C(O)=C(Cc2ccc(C(F)(F)F)cc2)C(=O)c2ccccc21 [Compound 007F],MIC,Mtb H37Rv [2]; read-out: MIC,94.1 µM
same,% of ThyX inhibition at 100 µM,Mtb ThyX,74%
same,MIC,"Mtb TH 12526; TH 12526, read-out: MIC",47.0 µM
CCOC(=O)COc1cc2oc(=O)cc(CC)c2cc1Cl [ethyl [(6-chloro-4-ethyl-2-oxo-2H-chromen-7-yl)oxy]acetate],Activity against gyrase at 100 uM,Mtb gyrase,no activity
O=C1C=C(Cc2ccc(F)cc2)C(=O)c2ccccc21 [Compound D4],MIC90,Mtb H37Rv [1],31.2 µM
COc1ccc(CC2=C(O)C(=O)c3ccccc3C2=O)cc1 [Compound C8-C1],Activity against Mtb ThyX (in words),Mtb ThyX,inhibit
same,IC50,Mtb ThyX,4.5 µM
same,Activity against Mtb gyrase (in words),Mtb gyrase,inactive
same,IC50 gyrase,Mtb gyrase,No inhibition
CCCc1cc(=O)oc2cc(OCC(=O)OC)c(Cl)cc12 [methyl [(6-chloro-2-oxo-4-propyl-2H-chromen-7-yl)oxy]acetate],Activity against gyrase at 100 uM,Mtb gyrase,no activity
O=C1C(O)=C(Cc2ccc(F)c(Cl)c2)C(=O)c2ccccc21 [Compound 010F],MIC,Mtb H37Rv [2]; read-out: MIC,197.3 µM
same,% of ThyX inhibition at 100 µM,Mtb ThyX,73%
same,MIC,"Mtb TH 12526; TH 12526, read-out: MIC",98.7 µM
O=C1C(O)=C(Cc2cccs2)C(=O)c2ccccc21 [Compound 010D],MIC,Mtb H37Rv [2]; read-out: MIC,231.2 µM
same,% of ThyX inhibition at 100 µM,Mtb ThyX,42%
same,MIC,"Mtb TH 12526; TH 12526, read-out: MIC",231.2 µM
O=C1C(O)=C(Cc2ccc(F)c(C(F)(F)F)c2)C(=O)c2ccccc21 [Compound 010E],MIC,Mtb H37Rv [2]; read-out: MIC,22.3 µM
same,% of ThyX inhibition at 100 µM,Mtb ThyX,32%
same,MIC,"Mtb TH 12526; TH 12526, read-out: MIC",22.3 µM
"Cc1cc(O)c2c(c1)C(=O)C=CC2=O [7-methyljuglone, reference compound]",Activity against Mtb ThyX (in words),Mtb ThyX,active
same,IC50,Mtb ThyX,35 µM
same,Activity against Mtb gyrase (in words),Mtb gyrase,active
same,IC50,Mtb gyrase,30 µM
"Cc1cc2c(c(O)c1-c1c(C)cc(O)c3c1C(=O)C=CC3=O)C(=O)C=CC2=O [Isodiospyrin, reference compound]",IC50,Mtb gyrase,100 µM
"CC(C)=CCC/C(C)=C/CC/C(C)=C/CC/C(C)=C/CC/C(C)=C/CC/C(C)=C/CC/C(C)=C/CC/C(C)=C/CC/C(C)=C/CC1=C(C)C(=O)c2ccccc2C1=O [MK-9, reference compound]",MIC,Mtb H37Rv [2]; [3],> 6.4 µM
"COC1=C(OC)C(=O)C(CCCCCCCCCCO)=C(C)C1=O [Idebenone, idebenone, reference compound]",Ki,"Mtb ThyX; uncompetitive with respect to dUMP, converted from measured IC50",3.3 µM
same,Mode of inhibition of Mtb ThyX,Mtb ThyX; with respect to dUMP,uncompetitive
same,MIC90,Mtb H37Rv [1]; Mycobacterium tuberculosis,125 µM
same,MIC90,Mtb H37Rv [1],125 µM
O=C1C(Br)=CC(=O)c2c(O)cccc21 [Compound 2E04],Activity against Mtb ThyX (in words),Mtb ThyX,inhibit
same,IC50,Mtb ThyX,5 µM
same,Activity against Mtb gyrase (in words),Mtb gyrase,inactive
same,IC50,Mtb gyrase,> 50 µM
"CS(=O)(=O)N1CCN(C2=C(Cl)C(=O)c3ccccc3C2=O)CC1 [Compound E1, 2-chloro-3-(4-methanesulfonylpiperazin-1-yl)-1,4-dihydronaphthalene-1,4-dione]",MIC90,Mtb H37Rv [1]; Mycobacterium tuberculosis,62.5 µM
"CO[C@H]1/C=C/O[C@@]2(C)Oc3c(C)c(O)c4c(O)c(c(/C=N/N5CCN(C)CC5)c(O)c4c3C2=O)NC(=O)/C(C)=C\C=C\[C@H](C)[C@H](O)[C@@H](C)[C@@H](O)[C@@H](C)[C@H](OC(C)=O)[C@@H]1C [RMP, rifampicin, reference compound]",MIC,Mtb,0.5 µg/mL
same,MIC,"Mtb TH 12526; Mycobacterium tuberculosis, TH12526",< 0.3 µM
"Cc1cc(O)c2c(c1)C(=O)C=C(c1c(C)cc(O)c3c1C(=O)C=CC3=O)C2=O [Neodiospyrin, reference compound]",IC50,Mtb ThyX,20 µM
same,IC50,Mtb gyrase,50 µM
COc1cc(CC2=C(O)C(=O)c3ccccc3C2=O)ccc1O [Compound 010H],MIC,Mtb H37Rv [2]; read-out: MIC,201.4 µM
same,% of ThyX inhibition at 100 µM,Mtb ThyX,41%
same,MIC,"Mtb TH 12526; TH 12526, read-out: MIC",201.4 µM
C=CCOC(=O)COc1cc2oc(=O)c(Cc3ccccc3)c(C)c2cc1Cl [prop-2-en-1-yl 2-[(3-benzyl-6-chloro-4-methyl-2-oxo-2H-chromen-7-yl)oxy]acetate],Activity against gyrase at 100 uM,Mtb gyrase,no activity
"CC1=CC(=O)c2ccccc2C1=O [Menadione, reference compound]",MIC,"Mtb H37Rv [2]; Mycobacterium tuberculosis, H37RV, menadione analogs, 7H9 media with 1% ethanol as a co-solvent, read-out: MIC (H37Rv)",98.8 µM
same,Activity against Mtb gyrase (in words),Mtb gyrase,inactive
"Cc1cc(O)c2c(c1)C(=O)C(c1c(C)cc3c(c1O)C(=O)C=CC3=O)=CC2=O [Diospyrin, reference compound]",IC50 ThyX,Mtb ThyX,No inhibition
same,Activity against Mtb gyrase (in words),Mtb gyrase,inhibits
same,IC50,Mtb gyrase,15 µM
"CC1(S(=O)(=O)[O-])CC(=O)c2ccccc2C1=O.[Na+] (stereo not shown) [Menadione Bisulfate, reference compound]",MIC,Mtb H37Rv [2]; [3],311.3 µM
CC(=O)N(C1=C(Cl)C(=O)c2ccccc2C1=O)c1cccc(F)c1 [Compound E10],MIC90,Mtb H37Rv [1],31.2 µM
CCc1cc2c(=O)c(-c3ccc(OC)cc3)coc2cc1OCC(=O)OC [methyl {[6-ethyl-3-(4-methoxyphenyl)-4-oxo-4H-chromen-7-yl]oxy}acetate],Activity against gyrase at 100 uM,Mtb gyrase,no activity
O=C1C(O)=C(Cc2cc(F)cc(F)c2)C(=O)c2ccccc21 [Compound 010B],MIC,Mtb H37Rv [2]; read-out: MIC,104.1 µM
same,% of ThyX inhibition at 100 µM,Mtb ThyX,68%
same,MIC,"Mtb TH 12526; TH 12526, read-out: MIC",104.1 µM
O=C1C(O)=C(Cc2ccc(Oc3ccccc3)cc2)C(=O)c2ccccc21 [Compound 007G],MIC,Mtb H37Rv [2]; read-out: MIC,175.5 µM
same,% of ThyX inhibition at 100 µM,Mtb ThyX,89%
same,MIC,"Mtb TH 12526; TH 12526, read-out: MIC",87.8 µM
